Patent publication US12486228B2, “N-substituted indoles and use as allosteric modulators of cannabinoid receptors” (priority 2018, dated 2025)
Where two headings read alike, the source gives them in different places.

Experiments:
hCB1 [1] = molecular target: T1, hCB1 (Homo sapiens, UniProt P21554); test: cell-based; parameters: host or cells: CHO-K1 PathHunter
Experimental: PathHunter CB1 β-Arrestin Assay: Chinese hamster ovary K1 (CHO-K1)-PathHunter hCB1 β-arrestin cells (DiscoveRx, Fremont, CA) were seeded at 5000 cells/well in 384-well plates 24 h before use and incubated at 37° C., 5% CO2. Compounds were dissolved in dimethyl sulfoxide (DMSO) and diluted in optimized cell culture (OCC) media. Agonist EC80 was determined directly from an agonist dose—response curve (data not shown). […] Five microliters of allosteric modulator or vehicle solution was added to each well at the appropriate concentrations and incubated for 30 min. Five microliters of agonist was then added to each well followed by a 90 min incubation. Fifteen microliters of detection reagent was then added followed by further 60 min incubation at room temperature. Chemiluminescence was measured on a standard luminescence plate reader as relative light units (RLU). Basal RLU was defined as zero. […] Data were analyzed using the fourparameter variable-slope and allosteric EC50 shift nonlinear regression equations in Prism 5.0 (GraphPad, San Diego, CA).

hCB1 [2] = molecular target: T1, hCB1; test: cell-based; parameters: host or cells: CHO-K1
Experimental: HitHunter cAMP assay: Inhibition of forskolin-stimulated cAMP was determined using the DiscoveRx HitHunter assay in hCB1R CHO-K1 cells. Cells (20,000 cells/well in low-volume 96 well plates) were incubated overnight in Opti-MEM (Invitrogen) containing 1% FBS at 37° C. and 5% CO2. Following this, Opti-MEM media was removed and replaced with cell assay buffer (DiscoveRx) and cells were co-treated at 37° C. with 10 μM forskolin and hCB1R ligands (0.10 nM-10 μM) for 30 min or 90 min cAMP antibody solution and cAMP working detection solutions were then added to cells according to the manufacturer's directions (DiscoveRx®) and cells were incubated for 60 min at room temperature. cAMP solution A was added according to the manufacturer's directions (DiscoveRx®) and cells were incubated for an additional 60 min at room temperature before chemiluminescence was measured on a Cytation 5 plate reader (top read, gain 200, integration time 10,000 ms).

[3] = CB1, PAM mode, read-out: CB1 PAM mode β-Arrestin EC50
[4] = read-out: CB1 PAM mode β-Arrestin Emax
[5] = CB1, PAM mode, read-out: CB1 PAM mode cAMP EC50
[6] = read-out: CB1 PAM mode cAMP Emax, CB1, PAM mode

T1 sequence (P21554 whole entry): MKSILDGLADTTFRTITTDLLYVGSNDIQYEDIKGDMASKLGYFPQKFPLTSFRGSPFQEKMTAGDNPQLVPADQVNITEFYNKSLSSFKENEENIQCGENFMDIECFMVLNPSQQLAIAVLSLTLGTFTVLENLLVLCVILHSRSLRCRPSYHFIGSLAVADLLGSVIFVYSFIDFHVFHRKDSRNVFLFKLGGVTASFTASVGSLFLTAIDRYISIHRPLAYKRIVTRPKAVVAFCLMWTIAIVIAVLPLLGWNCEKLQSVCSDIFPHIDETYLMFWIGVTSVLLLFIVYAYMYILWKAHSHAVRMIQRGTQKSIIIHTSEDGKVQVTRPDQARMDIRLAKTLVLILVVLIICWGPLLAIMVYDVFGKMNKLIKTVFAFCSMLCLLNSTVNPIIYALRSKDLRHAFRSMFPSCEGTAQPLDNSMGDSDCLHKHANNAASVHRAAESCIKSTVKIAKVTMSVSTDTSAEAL

## O=C(O)CC(c1ccccc1)c1cn(-c2ccccc2)c2ccccc12 (stereo not drawn) [Compound 8, 3-Phenyl-3-(1-phenyl-1H-indol-3-yl)propanoic acid]
hCB1 [1]; [3]
  EC50: > 10 µM
hCB1 [1]; [4]
  Emax: 0%
hCB1 [2]; [5]
  EC50: 0.509 µM
hCB1 [2]; [6]
  Emax: 144%

## CCOC(=O)CCC(c1ccccc1)c1cn(-c2ccccc2)c2ccccc12 (stereo not drawn) [Compound 13, Ethyl 4-phenyl-4-(1-phenyl-1H-indol-3-yl)butanoate]
hCB1 [1]; [3]
  EC50: > 10 µM
hCB1 [1]; [4]
  Emax: 0%
hCB1 [2]; [5]
  EC50: > 10 µM
hCB1 [2]; [6]
  Emax: 0%

## CC(CC(c1ccccc1)c1cn(-c2ccccc2)c2ccccc12)C(=O)O (racemic) [Compound 11, (±)-2-Methyl-4-phenyl-4-(1-phenyl-1H-indol-3-yl)butanoic acid]
hCB1 [1]; [3]
  EC50: > 10 µM
hCB1 [1]; CB1, agonist mode, read-out: CB1 Agonist mode β-Arrestin EC50
  EC50: > 10 µM
hCB1 [1]; read-out: CB1 Agonist mode β-Arrestin Emax
  Emax: 0%
hCB1 [1]; [4]
  Emax: 0%
hCB1 [2]; [5]
  EC50: 1.89 µM
hCB1 [2]; CB1, agonist mode, read-out: CB1 Agonist mode cAMP EC50
  EC50: 1.26 µM
hCB1 [2]; read-out: CB1 Agonist mode cAMP Emax, CB1, agonist mode
  Emax: 62%
hCB1 [2]; [6]
  Emax: 100%

## O=C(c1ccccc1)c1cn(-c2ccccc2)c2ccccc12 [Compound 40, Phenyl(1-phenyl-1H-indol-3-yl)methanone]
hCB1 [1]
  EC50: > 10 µM
hCB1 [1]; [4]
  Emax: 0.273%
hCB1 [2]; CB1 PAM mode cAMP EC50, CB1, PAM mode
  EC50: > 10 µM
hCB1 [2]; [6]
  Emax: 11.7%

## OC(c1ccccc1)c1cn(-c2ccccc2)c2ccccc12 (stereo not drawn) [Compound 30, Phenyl(1-phenyl-1H-indol-3-yl)methanol]
hCB1 [1]; [3]
  EC50: > 10 µM
hCB1 [1]; [4]
  Emax: 0%
hCB1 [2]; [5]
  EC50: > 10 µM
hCB1 [2]; [6]
  Emax: 0%

## O=C(O)C(c1ccccc1)c1cn(-c2ccccc2)c2ccccc12 (stereo not drawn) [Compound 7, 2-Phenyl-2-(1-phenyl-1H-indol-3-yl)acetic acid]
hCB1 [1]; [3]
  EC50: > 10 µM
hCB1 [1]; [4]
  Emax: 0%
hCB1 [2]; [5]
  EC50: 4.18 µM
hCB1 [2]; [6]
  Emax: 78.9%

## OCC(c1ccccc1)c1cn(-c2ccccc2)c2ccc(Cl)cc12 (stereo not drawn) [Compound 35, 2-(5-Chloro-1-phenyl-1H-indol-3-yl)-2-phenylethan-1-ol]
hCB1 [1]; [3]
  EC50: > 10 µM
hCB1 [1]; [4]
  Emax: 0%
hCB1 [2]; [5]
  EC50: > 10 µM
hCB1 [2]; [6]
  Emax: 2.81%

## CCOC(=O)C(C(=O)O)C(c1ccccc1)c1cn(-c2ccccc2)c2ccccc12 (stereo not drawn) [Compound 10, 3-Ethoxy-3-oxo-2-(phenyl(1-phenyl-1H-indol-3-yl)methyl)propanoic acid]
hCB1 [1]; [3]
  EC50: > 10 µM
hCB1 [1]; [4]
  Emax: 4.59%
hCB1 [2]; [5]
  EC50: > 10 µM
hCB1 [2]; [6]
  Emax: 6.98%

## OCCC(c1ccccc1)c1cn(-c2ccccc2)c2ccccc12 (stereo not drawn) [Compound 32, 3-Phenyl-3-(1-phenyl-1H-indol-3-yl)propan-1-ol]
hCB1 [1]; [3]
  EC50: > 10 µM
hCB1 [1]; [4]
  Emax: 0%
hCB1 [2]; [5]
  EC50: > 10 µM
hCB1 [2]; [6]
  Emax: 27.1%

## OCCCC(c1ccccc1)c1cn(-c2ccccc2)c2ccccc12 (stereo not drawn) [Compound 34, 4-Phenyl-4-(1-phenyl-1H-indol-3-yl)butan-1-ol]
hCB1 [1]; [3]
  EC50: > 10 µM
hCB1 [1]; [4]
  Emax: 5%
hCB1 [2]; [5]
  EC50: > 10 µM
hCB1 [2]; [6]
  Emax: 0%

## O=C(O)C(C(=O)O)C(c1ccccc1)c1cn(-c2ccccc2)c2ccccc12 (stereo not drawn) [Compound 9, 2-(Phenyl(1-phenyl-1H-indol-3-yl)methyl)malonic acid]
hCB1 [1]; [3]
  EC50: > 10 µM
hCB1 [1]; [4]
  Emax: 0%
hCB1 [2]; [5]
  EC50: 1.28 µM
hCB1 [2]; [6]
  Emax: 158%

## OCC(c1ccccc1)c1cn(-c2ccccc2)c2ccccc12 (stereo not drawn) [Compound 31, 2-Phenyl-2-(1-phenyl-1H-indol-3-yl)ethan-1-ol]
hCB1 [1]; [3]
  EC50: > 10 µM
hCB1 [1]; [4]
  Emax: 0%
hCB1 [2]; [5]
  EC50: > 10 µM
hCB1 [2]; [6]
  Emax: 1.31%

## c1ccc(C(Cc2nnn[nH]2)c2cn(-c3ccccc3)c3ccccc23)cc1 (stereo not drawn) [Compound 39, 1-Phenyl-3-(1-phenyl-2-(1H-tetrazol-5-yl)ethyl)-1H-indole]
hCB1 [1]; [3]
  EC50: > 10 µM
hCB1 [1]; [4]
  Emax: 0%
hCB1 [2]; [5]
  EC50: 0.423 µM
hCB1 [2]; [6]
  Emax: 94%

## NC(=O)CC(c1ccccc1)c1cn(-c2ccccc2)c2ccccc12 (stereo not drawn) [Compound 38, 3-Phenyl-3-(1-phenyl-1H-indol-3-yl)propanamide]
hCB1 [1]; [3]
  EC50: > 10 µM
hCB1 [1]; [4]
  Emax: 0%
hCB1 [2]; [5]
  EC50: > 10 µM
hCB1 [2]; [6]
  Emax: 27.1%
